Source: US20160220569A1, “CDK4/6 Inhibitor Dosage Formulations For The Protection Of Hematopoietic Stem And Progenitor Cells During Chemotherapy” (G1 Therapeutics, Inc., priority 2015, published 2016)
Read-outs that look alike come from different tables or passages of the source.

Experiment: Single escalating dose IV infusion pharmacokinetics in healthy volunteers (noncompartmental)
Type: in vivo, human
Details: both sexes, human, plasma, iv; for concentration at 24.5 h: read-out: concentration at 24.5 hours after the start of infusion; for concentration at 0.25 h / concentration at 0.5 h / concentration at 0.75 h / concentration at 1 h / concentration at 2.5 h / concentration at 3.5 h / concentration at 8.5 h / concentration at 12.5 h / concentration at 6.5 h: r7-9=Subjects 1-3,r11=Mean,r13=Min,r14=Median,r15=Max,r17=Geometric Mean; for concentration at 0.5 h: Time 0.50 h
Protocol: Forty-five subjects have enrolled in the study.
Analysis of plasma concentration versus time data for calculation of standard pharmacokinetic (PK) parameters following intravenous infusion administration was conducted using Phoenix WinNonlin version 6.3 using a nominal infusion duration and scheduled blood sampling times. Random subject numbers were assigned by the bioanalytical laboratory to retain the blind.
(§1) Analysis of plasma concentration versus time data for calculation of standard pharmacokinetic (PK) parameters following intravenous infusion administration was conducted using Phoenix WinNonlin version 6.3 using a nominal infusion duration and scheduled blood sampling times.
as §1

[1] = 6 mg/m^2, Compound 1 Concentration, Cohort 1, 6 mg/m^2 IV
[2] = 12 mg/m^2, Compound 1 Concentration, Cohort 2, 12 mg/m^2 IV
[3] = 24 mg/m2, Cohort 3, 24 mg/m^2 IV, r6-8=Subjects 1-3,r10=Mean,r12=Min,r13=Median,r14=Max,r16=Geometric Mean

Molecule CN1CCN(c2ccc(Nc3ncc4cc5n(c4n3)C3(CCCCC3)CNC5=O)nc2)CC1 [Compound 1, 2′-((5-(4-methylpiperazin-1-yl)pyridin-2-yl)amino)-7′,8′-dihydro-6′H-spiro[cyclohexane-1,9′-pyrazino[1′,2′:1,5]pyrrolo[2,3-d]pyrimidin]-6′-one] has a concentration at 24.5 h (6 mg/m^2, Cohort 1, 6 mg/m^2 IV, 1 of 3 subjects measurable) of 0.595 ng/mL, a concentration at 0.25 h [1] of 49 ng/mL and a concentration at 0.5 h [1] of 46.9 ng/mL. For the same molecule, the concentration at 0.75 h [1] was 16.3 ng/mL, the concentration at 1 h (6 mg/m^2, Compound 1 Concentration, Cohort 1, 6 mg/m^2 IV, Time 1.00 h) was 11.8 ng/mL and the concentration at 2.5 h (6 mg/m^2, Compound 1 Concentration, Cohort 1, 6 mg/m^2 IV, Time 2.50 h) was 4.69 ng/mL. The concentration at 3.5 h (6 mg/m^2, Compound 1 Concentration, Cohort 1, 6 mg/m^2 IV, Time 3.50 h) was 3.75 ng/mL, the concentration at 8.5 h (6 mg/m^2, Compound 1 Concentration, Cohort 1, 6 mg/m^2 IV, Time 8.50 h) was 1.39 ng/mL and the concentration at 12.5 h (6 mg/m^2, Compound 1 Concentration, Cohort 1, 6 mg/m^2 IV, Time 12.50 h) was 0.752 ng/mL. It also gave an AUC(0-inf) (12 mg/m2, Cohort 2, 12 mg/m^2 IV, mean, read-out: AUCinf averaged) of 148 ng·h/mL, a Cmax (12 mg/m2, Cohort 2, 12 mg/m^2 IV, mean, read-out: Cmax averaged) of 122 ng/mL and a half-life (12 mg/m2, Cohort 2, 12 mg/m^2 IV, mean, read-out: Half-lives averaged (converted)) of 8.22 h. The Tmax (12 mg/m2, Cohort 2, 12 mg/m^2 IV, median, read-out: median Tmax) was 0.5 h, the MRT inf (12 mg/m2, Cohort 2, 12 mg/m^2 IV, r6-8=Subjects 1-3,r10=Mean,r12=Min,r13=Median,r14=Max,r16=Geometric Mean) was 5.56 h and the AUC(0-inf) (12 mg/m2, Cohort 2, 12 mg/m^2 IV, r6-8=Subjects 1-3,r10=Mean,r12=Min,r13=Median,r14=Max,r16=Geometric Mean, read-out: AUCinf) was 148 ng·h/mL. It also gave a Cmax (12 mg/m2, Cohort 2, 12 mg/m^2 IV, r6-8=Subjects 1-3,r10=Mean,r12=Min,r13=Median,r14=Max,r16=Geometric Mean, read-out: Cmax) of 122 ng/mL, a Tmax (12 mg/m2, Cohort 2, 12 mg/m^2 IV, r6-8=Subjects 1-3,r10=Mean,r12=Min,r13=Median,r14=Max,r16=Geometric Mean, read-out: Tmax) of 0.417 h and a half-life (12 mg/m2, Cohort 2, 12 mg/m^2 IV, r6-8=Subjects 1-3,r10=Mean,r12=Min,r13=Median,r14=Max,r16=Geometric Mean, read-out: t½ (converted)) of 8.22 h. For the same molecule, the half-life (12 mg/m2, Cohort 2, 12 mg/m^2 IV, range over subjects, read-out: Half-lives range) was 7.56 to 8.89 h, the concentration at 24.5 h (12 mg/m^2, Cohort 2, 12 mg/m^2 IV, range over 3 subjects) was 0.506 to 1.06 ng/mL and the concentration at 0.25 h [2] was 115 ng/mL. The concentration at 0.5 h [2] was 102 ng/mL, the concentration at 0.75 h [2] was 33.2 ng/mL and the concentration at 1 h (12 mg/m^2, Compound 1 Concentration, Cohort 2, 12 mg/m^2 IV, Time 1.0 h) was 23.9 ng/mL. The concentration at 2.5 h (12 mg/m^2, Compound 1 Concentration, Cohort 2, 12 mg/m^2 IV, Time 2.5 h) was 8.75 ng/mL, the concentration at 3.5 h (12 mg/m^2, Compound 1 Concentration, Cohort 2, 12 mg/m^2 IV, Time 3.5 h) was 7.89 ng/mL and the concentration at 6.5 h [2] was 3.99 ng/mL. The concentration at 8.5 h (12 mg/m^2, Compound 1 Concentration, Cohort 2, 12 mg/m^2 IV, Time 8.5 h) was 2.79 ng/mL, the concentration at 12.5 h (12 mg/m^2, Compound 1 Concentration, Cohort 2, 12 mg/m^2 IV, Time 12.5 h) was 1.65 ng/mL and the AUC(0-inf) (24 mg/m2, Cohort 3, 24 mg/m^2 IV, mean, read-out: AUCinf averaged) was 287 ng·h/mL. It also gave a Cmax (24 mg/m2, Cohort 3, 24 mg/m^2 IV, mean, read-out: Cmax averaged) of 252 ng/mL, a half-life (24 mg/m2, Cohort 3, 24 mg/m^2 IV, mean, read-out: Half-lives averaged (converted)) of 9.88 h and a Tmax (24 mg/m2, Cohort 3, 24 mg/m^2 IV, median, read-out: median Tmax) of 0.5 h. For the same molecule, the AUC(0-t) [3] was 261 ng·h/mL, the MRT inf [3] was 6.65 h and the AUC(0-inf) (24 mg/m2, Cohort 3, 24 mg/m^2 IV, r6-8=Subjects 1-3,r10=Mean,r12=Min,r13=Median,r14=Max,r16=Geometric Mean, read-out: AUCinf) was 287 ng·h/mL. The Cmax (24 mg/m2, Cohort 3, 24 mg/m^2 IV, r6-8=Subjects 1-3,r10=Mean,r12=Min,r13=Median,r14=Max,r16=Geometric Mean, read-out: Cmax) was 252 ng/mL, the Tmax (24 mg/m2, Cohort 3, 24 mg/m^2 IV, r6-8=Subjects 1-3,r10=Mean,r12=Min,r13=Median,r14=Max,r16=Geometric Mean, read-out: Tmax) was 0.5 h and the half-life (24 mg/m2, Cohort 3, 24 mg/m^2 IV, r6-8=Subjects 1-3,r10=Mean,r12=Min,r13=Median,r14=Max,r16=Geometric Mean, read-out: t½ (converted)) was 9.88 h. For the same molecule, the half-life (24 mg/m2, Cohort 3, 24 mg/m^2 IV, range over subjects, read-out: Half-lives range) was 7.85 to 13.1 h, the concentration at 24.5 h (24 mg/m^2, Cohort 3, 24 mg/m^2 IV, range over 3 subjects) was 0.87 to 2.91 ng/mL and the concentration at 1 h (24 mg/m^2, Compound 1 Concentration, Cohort 3, 24 mg/m^2 IV, Time 1.0 h) was 39.2 ng/mL. For the same molecule, the concentration at 2.5 h (24 mg/m^2, Compound 1 Concentration, Cohort 3, 24 mg/m^2 IV, Time 2.5 h) was 15 ng/mL, the concentration at 3.5 h (24 mg/m^2, Compound 1 Concentration, Cohort 3, 24 mg/m^2 IV, Time 3.5 h) was 11.6 ng/mL and the concentration at 6.5 h (24 mg/m^2, Compound 1 Concentration, Cohort 3, 24 mg/m^2 IV) was 6.7 ng/mL. It also gave a concentration at 8.5 h (24 mg/m^2, Compound 1 Concentration, Cohort 3, 24 mg/m^2 IV, Time 8.5 h) of 4.91 ng/mL and an AUC(0-inf) (48 mg/m2, Cohort 4, 48 mg/m^2 IV, mean, read-out: AUCinf averaged) of 499 ng·h/mL.
